# From BindingDB's records for doi:10.1016/j.bmcl.2011.09.019 (Itherx Pharmaceuticals, 2011)
# Assay: Inhibition of human SRB1-mediated Hepatitis C virus genotype 2a entry into human 293T cells by immunoblotting
row,IC50 [nM],SMILES
1,230,COC(=O)c1ccc2c(c1)c1ccccc1n2CCCN1C[C@@H](C)N[C@@H](C)C1
2,600,CCOC(=O)c1ccc2c(c1)c1ccccc1n2CCCN1C[C@@H](C)N[C@@H](C)C1
3,1200,"C[C@@H]1CN(CCCn2c3ccccc3c3ccccc32)C[C@H](C)N1 [9-(3-(3,5-dimethylpiperazin-1-yl)propyl)-9H-carbazole]"
4,630,CC(C)OC(=O)c1ccc2c(c1)c1ccccc1n2CCCN1C[C@@H](C)N[C@@H](C)C1
